Laboratory results taken from ChEMBL document CHEMBL3232998, “Spiromastixones A-O, antibacterial chlorodepsidones from a deep-sea-derived Spiromastix sp. fungus” (J Nat Prod, 2014).
Values after ≈ are worked out from the molar mass of the structure shown.

Experiments:
Staphylococcus aureus [1] = test: Antibacterial activity against Staphylococcus aureus ATCC 29213 after 18 hrs by broth microdilution method; assay type: functional; conditions: ATCC 29213, 18 h
Bacillus thuringiensis = test: Antibacterial activity against Bacillus thuringiensis SCSIO BT01 after 18 hrs by broth microdilution method; assay type: functional; conditions: SCSIO BT01, 18 h
Bacillus subtilis = test: Antibacterial activity against Bacillus subtilis SCSIO BS01 after 18 hrs by broth microdilution method; assay type: functional; conditions: SCSIO BS01, 18 h
Escherichia coli [2] = test: Antibacterial activity against Escherichia coli ATCC 25922 after 18 hrs by broth microdilution method; assay type: functional; conditions: ATCC 25922, 18 h
Staphylococcus aureus [3] = test: Antibacterial activity against methicillin-sensitive Staphylococcus aureus ATCC 29213 after 18 hrs by broth microdilution method; assay type: functional, organism-based; conditions: ATCC 29213, 18 h, read-out: IC50
Staphylococcus aureus [4] = test: Antibacterial activity against methicillin-resistant Staphylococcus aureus ATCC 33591 after 18 hrs by broth microdilution method; assay type: functional, organism-based; conditions: ATCC 33591, 18 h, read-out: IC50
Staphylococcus aureus [5] = test: Antibacterial activity against methicillin-sensitive Staphylococcus aureus 15 after 18 hrs by broth microdilution method; assay type: functional, organism-based; conditions: Staphylococcus aureus, 15, 18 h; read-out: IC50
Staphylococcus aureus [6] = test: Antibacterial activity against methicillin-sensitive Staphylococcus aureus 12-28 after 18 hrs by broth microdilution method; assay type: functional, organism-based; conditions: 12-28, 18 h
Staphylococcus aureus [7] = test: Antibacterial activity against methicillin-resistant Staphylococcus aureus 12-33 after 18 hrs by broth microdilution method; assay type: functional, organism-based; conditions: 12-33, 18 h, read-out: IC50
[8] = system: Staphylococcus epidermidis; test: Antibacterial activity against methicillin-sensitive Staphylococcus epidermidis ATCC 12228 after 18 hrs by broth microdilution method; assay type: functional, organism-based; conditions: ATCC 12228, 18 h, read-out: IC50
[9] = system: Staphylococcus epidermidis; test: Antibacterial activity against methicillin-sensitive Staphylococcus epidermidis 12-6 after 18 hrs by broth microdilution method; assay type: functional, organism-based; conditions: 12-6, 18 h
[10] = system: Staphylococcus epidermidis; test: Antibacterial activity against methicillin-resistant Staphylococcus epidermidis 12-8 after 18 hrs by broth microdilution method; assay type: functional, organism-based; conditions: 12-8, 18 h, read-out: IC50
Enterococcus faecalis [11] = test: Antibacterial activity against vancomycin-sensitive Enterococcus faecalis ATCC 29212 after 18 hrs by broth microdilution method; assay type: functional, organism-based; conditions: ATCC 29212, 18 h, read-out: IC50
Enterococcus faecalis [12] = test: Antibacterial activity against vancomycin-resistant Enterococcus faecalis ATCC 51299 after 18 hrs by broth microdilution method; assay type: functional, organism-based; conditions: ATCC 51299, 18 h, read-out: IC50
Enterococcus faecalis [13] = test: Antibacterial activity against vancomycin-sensitive Enterococcus faecalis 12-5 after 18 hrs by broth microdilution method; assay type: functional, organism-based; conditions: 12-5, 18 h, read-out: IC50
Enterococcus faecalis [14] = test: Antibacterial activity against vancomycin-resistant Enterococcus faecalis 09-9 after 18 hrs by broth microdilution method; assay type: functional, organism-based; conditions: 09-9, 18 h, read-out: IC50
Enterococcus faecium [15] = test: Antibacterial activity against vancomycin-resistant Enterococcus faecium ATCC 700221 after 18 hrs by broth microdilution method; assay type: functional, organism-based; conditions: ATCC 700221, 18 h, read-out: IC50
Enterococcus faecium [16] = test: Antibacterial activity against vancomycin-resistant Enterococcus faecium 12-1 after 18 hrs by broth microdilution method; assay type: functional, organism-based; conditions: 12-1, 18 h, read-out: IC50
Enterococcus faecium [17] = test: Antibacterial activity against vancomycin-sensitive Enterococcus faecium 12-3 after 18 hrs by broth microdilution method; assay type: functional, organism-based; conditions: 12-3, 18 h, read-out: IC50
Escherichia coli [18] = test: Antibacterial activity against extended spectrum beta-lactamase-deficient Escherichia coli ATCC 25922 after 18 hrs by broth microdilution method; assay type: functional, organism-based; conditions: ATCC 25922, 18 h, read-out: IC50
Escherichia coli [19] = test: Antibacterial activity against extended spectrum beta-lactamase-deficient Escherichia coli 1515 after 18 hrs by broth microdilution method; assay type: functional, organism-based; conditions: Escherichia coli, 1515, 18 h
Escherichia coli [20] = test: Antibacterial activity against extended spectrum beta-lactamase-deficient Escherichia coli 12-14 after 18 hrs by broth microdilution method; assay type: functional, organism-based; conditions: 12-14, 18 h, read-out: IC50
Escherichia coli [21] = test: Antibacterial activity against extended spectrum beta-lactamase producing Escherichia coli 12-15 after 18 hrs by broth microdilution method; assay type: functional, organism-based; conditions: 12-15, 18 h, read-out: IC50
Klebsiella pneumoniae [22] = test: Antibacterial activity against extended spectrum beta-lactamase producing Klebsiella pneumoniae ATCC 700603 after 18 hrs by broth microdilution method; assay type: functional, organism-based; conditions: ATCC 700603, 18 h
Klebsiella pneumoniae [23] = test: Antibacterial activity against extended spectrum beta-lactamase-deficient Klebsiella pneumoniae 7 after 18 hrs by broth microdilution method; assay type: functional, organism-based; conditions: Klebsiella pneumoniae, 7, 18 h; read-out: IC50
Klebsiella pneumoniae [24] = test: Antibacterial activity against NDM-1 producing Klebsiella pneumoniae ATCC BAA-2146 after 18 hrs by broth microdilution method; assay type: functional, organism-based; conditions: ATCC BAA-2146, 18 h, read-out: IC50
Klebsiella pneumoniae [25] = test: Antibacterial activity against extended spectrum beta-lactamase-deficient Klebsiella pneumoniae 12-4 after 18 hrs by broth microdilution method; assay type: functional, organism-based; conditions: 12-4, 18 h
Klebsiella pneumoniae [26] = test: Antibacterial activity against extended spectrum beta-lactamase producing Klebsiella pneumoniae 12-8 after 18 hrs by broth microdilution method; assay type: functional, organism-based; conditions: 12-8, 18 h, read-out: IC50
Staphylococcus aureus [27] = test: Ratio of levofloxacin IC50 to compound IC50 for methicillin-resistant Staphylococcus aureus 12-33 after 18 hrs by broth microdilution method; assay type: functional

Structure (SMILES)	MIC (Staphylococcus aureus [1])	MIC (Bacillus thuringiensis)	MIC (Bacillus subtilis)	MIC (Escherichia coli [2])	MIC (Staphylococcus aureus [3])	MIC (Staphylococcus aureus [4])	MIC (Staphylococcus aureus [5])	IC50 (Staphylococcus aureus [6])	MIC (Staphylococcus aureus [7])	MIC [8]	IC50 [9]	MIC [10]	MIC (Enterococcus faecalis [11])	MIC (Enterococcus faecalis [12])	MIC (Enterococcus faecalis [13])	MIC (Enterococcus faecalis [14])	MIC (Enterococcus faecium [15])	MIC (Enterococcus faecium [16])	MIC (Enterococcus faecium [17])	MIC (Escherichia coli [18])	other results
CCCc1cc(O)cc2c1Oc1cc(O)cc(CCC)c1C(=O)O2	4 µg/mL (≈ 12.2 µM)	4 µg/mL (≈ 12.2 µM)	8 µg/mL (≈ 24.4 µM)	> 128 µg/mL																	
CCCc1cc(O)cc2c1Oc1cc(O)c(Cl)c(CCC)c1C(=O)O2	8 µg/mL (≈ 22.1 µM)	4 µg/mL (≈ 11 µM)	8 µg/mL (≈ 22.1 µM)	> 128 µg/mL																	
CCCc1cc(O)cc2c1Oc1c(Cl)c(O)cc(CCC)c1C(=O)O2	8 µg/mL (≈ 22.1 µM)	8 µg/mL (≈ 22.1 µM)	16 µg/mL (≈ 44.1 µM)	> 128 µg/mL	32 µM (≈ 11.6 µg/mL)	64 µM (≈ 23.2 µg/mL)	64 µM (≈ 23.2 µg/mL)	64 µM	64 µM (≈ 23.2 µg/mL)	64 µM (≈ 23.2 µg/mL)	64 µM	32 µM (≈ 11.6 µg/mL)	256 µM (≈ 92.9 µg/mL)	> 256 µM	> 256 µM	256 µM (≈ 92.9 µg/mL)	> 256 µM	256 µM (≈ 92.9 µg/mL)	> 256 µM	> 256 µM	IC50 (Escherichia coli [19]): > 256 µM; MIC (Escherichia coli [20]): > 256 µM; MIC (Escherichia coli [21]): > 256 µM; IC50 (Klebsiella pneumoniae [22]): > 256 µM; MIC (Klebsiella pneumoniae [23]): > 256 µM; MIC (Klebsiella pneumoniae [24]): > 256 µM; IC50 (Klebsiella pneumoniae [25]): > 256 µM; MIC (Klebsiella pneumoniae [26]): > 256 µM
CCCc1cc(O)c(Cl)c2c1C(=O)Oc1cc(O)c(Cl)c(CCC)c1O2	2 µg/mL (≈ 5.03 µM)	2 µg/mL (≈ 5.03 µM)	2 µg/mL (≈ 5.03 µM)	> 128 µg/mL																	
CCCc1cc(O)cc2c1Oc1c(Cl)c(O)c(Cl)c(CCC)c1C(=O)O2	4 µg/mL (≈ 10.1 µM)	2 µg/mL (≈ 5.03 µM)	4 µg/mL (≈ 10.1 µM)	> 128 µg/mL	64 µM (≈ 25.4 µg/mL)	32 µM (≈ 12.7 µg/mL)	64 µM (≈ 25.4 µg/mL)	128 µM	128 µM (≈ 50.8 µg/mL)	32 µM (≈ 12.7 µg/mL)	32 µM	64 µM (≈ 25.4 µg/mL)	> 256 µM	> 256 µM	> 256 µM	> 256 µM	> 256 µM	> 256 µM	> 256 µM	> 256 µM	IC50 (Escherichia coli [19]): > 256 µM; MIC (Escherichia coli [20]): > 256 µM; MIC (Escherichia coli [21]): > 256 µM; IC50 (Klebsiella pneumoniae [22]): > 256 µM; MIC (Klebsiella pneumoniae [23]): > 256 µM; MIC (Klebsiella pneumoniae [24]): > 256 µM; IC50 (Klebsiella pneumoniae [25]): > 256 µM; MIC (Klebsiella pneumoniae [26]): > 256 µM
CCCc1c(Cl)c(O)cc2c1Oc1c(Cl)c(O)c(Cl)c(CCC)c1C(=O)O2	2 µg/mL (≈ 4.63 µM)	1 µg/mL (≈ 2.32 µM)	0.5 µg/mL (≈ 1.16 µM)	> 128 µg/mL	4 µM (≈ 1.73 µg/mL)	4 µM (≈ 1.73 µg/mL)	4 µM (≈ 1.73 µg/mL)	4 µM	4 µM (≈ 1.73 µg/mL)	2 µM (≈ 0.863 µg/mL)	4 µM	4 µM (≈ 1.73 µg/mL)	32 µM (≈ 13.8 µg/mL)	32 µM (≈ 13.8 µg/mL)	32 µM (≈ 13.8 µg/mL)	32 µM (≈ 13.8 µg/mL)	32 µM (≈ 13.8 µg/mL)	16 µM (≈ 6.91 µg/mL)	32 µM (≈ 13.8 µg/mL)	> 256 µM	IC50 (Escherichia coli [19]): > 256 µM; MIC (Escherichia coli [20]): > 256 µM; MIC (Escherichia coli [21]): > 256 µM; IC50 (Klebsiella pneumoniae [22]): > 256 µM; MIC (Klebsiella pneumoniae [23]): > 256 µM; MIC (Klebsiella pneumoniae [24]): > 256 µM; IC50 (Klebsiella pneumoniae [25]): > 256 µM; MIC (Klebsiella pneumoniae [26]): > 256 µM
CCCc1c(Cl)c(OC)cc2c1Oc1c(Cl)c(O)c(Cl)c(CCC)c1C(=O)O2	0.5 µg/mL (≈ 1.12 µM)	0.5 µg/mL (≈ 1.12 µM)	0.25 µg/mL (≈ 0.561 µM)	> 128 µg/mL	8 µM (≈ 3.57 µg/mL)	4 µM (≈ 1.78 µg/mL)	4 µM (≈ 1.78 µg/mL)	4 µM	8 µM (≈ 3.57 µg/mL)	4 µM (≈ 1.78 µg/mL)	4 µM	2 µM (≈ 0.891 µg/mL)	128 µM (≈ 57.1 µg/mL)	> 256 µM	> 256 µM	256 µM (≈ 114 µg/mL)	256 µM (≈ 114 µg/mL)	16 µM (≈ 7.13 µg/mL)	256 µM (≈ 114 µg/mL)	> 256 µM	IC50 (Escherichia coli [19]): > 256 µM; MIC (Escherichia coli [20]): > 256 µM; MIC (Escherichia coli [21]): > 256 µM; IC50 (Klebsiella pneumoniae [22]): > 256 µM; MIC (Klebsiella pneumoniae [23]): > 256 µM; MIC (Klebsiella pneumoniae [24]): > 256 µM; IC50 (Klebsiella pneumoniae [25]): > 256 µM; MIC (Klebsiella pneumoniae [26]): > 256 µM; Ratio IC50 (Staphylococcus aureus [27]): 2
CCCc1cc(O)c(Cl)c2c1Oc1c(Cl)c(O)c(Cl)c(CCC)c1C(=O)O2	4 µg/mL (≈ 9.27 µM)	1 µg/mL (≈ 2.32 µM)	1 µg/mL (≈ 2.32 µM)	> 128 µg/mL	4 µM (≈ 1.73 µg/mL)	4 µM (≈ 1.73 µg/mL)	4 µM (≈ 1.73 µg/mL)	8 µM	8 µM (≈ 3.45 µg/mL)	4 µM (≈ 1.73 µg/mL)	2 µM	4 µM (≈ 1.73 µg/mL)	16 µM (≈ 6.91 µg/mL)	16 µM (≈ 6.91 µg/mL)	16 µM (≈ 6.91 µg/mL)	16 µM (≈ 6.91 µg/mL)	16 µM (≈ 6.91 µg/mL)	16 µM (≈ 6.91 µg/mL)	32 µM (≈ 13.8 µg/mL)	64 µM (≈ 27.6 µg/mL)	IC50 (Escherichia coli [19]): 64 µM; MIC (Escherichia coli [20]): 64 µM (≈ 27.6 µg/mL); MIC (Escherichia coli [21]): 64 µM (≈ 27.6 µg/mL); IC50 (Klebsiella pneumoniae [22]): 256 µM; MIC (Klebsiella pneumoniae [23]): 256 µM (≈ 111 µg/mL); MIC (Klebsiella pneumoniae [24]): 256 µM (≈ 111 µg/mL); IC50 (Klebsiella pneumoniae [25]): 128 µM; MIC (Klebsiella pneumoniae [26]): 128 µM (≈ 55.3 µg/mL); Ratio IC50 (Staphylococcus aureus [27]): 2
